Values joined by “and” are separate entries in the source; they are usually repeats but may differ in a detail not shown here. Equal values may be shown once. “Also recorded” adds a separate entry of the source. Read-outs that look alike come from different tables or passages of the source.
Assays:
[1] = tested on: Brugia malayi adult worms (AW); test: In vitro motility assay on adult female worms; assay type: cell-based; conditions: for IC50: read-out: IC50 for AW in MA
Procedure: (§1) Microfilariae and adult worms were harvested from p.c. of the M. unguiculatus harbouring approximately 5–6 month-old B. malayi infection. The parasites were washed thoroughly with HBSS (pH 7.2) containing antibiotics (penicillin: 100 U/ml; streptomycin: 100 μg/ml) and used for the present study.
(§2) Motility and 3-(4,5-dimethylthiazol-2-yl)-2,5 diphenyltetrazolium bromide (MTT; Sigma-Aldrich, USA) reduction assays that indicate viability of the parasites were used. Test samples and ivermectin (purity 95 %; Sigma-Aldrich, USA) were dissolved in dimethyl sulfoxide (DMSO; Sigma-Aldrich, USA); the final concentration of DMSO in the incubation medium Hanks Balanced Salt Solution (HBSS; Sigma-Aldrich, USA) containing 100 U/ml penicillin and 100 μg/ml streptomycin (Sigma-Aldrich, USA), was kept ≤ 0.1 %. Diethylcarbamazine-citrate (DEC-C; purity 100 %; Sigma-Aldrich, USA) solution was prepared in sterile distilled water. HBSS containing DMSO (≤ 0.1 %) alone was used as negative control.
(§3) In vitro efficacy of the test agents and reference drugs was assessed on mf (40–50 mf/100 μl/well) in a 96-well cell culture plate (Nunc, Denmark) and on adult female worms (1 worm/ml/well) in a 48-well plate (Nunc, Denmark). The assays were run in triplicates.
(§4) Motility assay using mf and adult worms was carried out as described elsewhere. Changes in parasite motility was assessed under a microscope and scored as: 0 = dead (100 %); 1-4 = loss of motility (1 = 75 %; 2 = 50 %; 3 = 25 %; and 4 = no loss of motility). The experiment was repeated twice.
(§5) IC50 and CC50 of the test agents were determined using the method described elsewhere. […] The experiments were repeated twice.
(§6) Data were transferred to a graphic program (MS Excel) and IC50 and CC50 were calculated by linear interpolation between the two concentrations above and below 50 % inhibition.

[2] = tested on: Brugia malayi microfilariae (Mf); test: In vitro motility assay on microfilariae; assay type: cell-based; conditions: for IC50: read-out: IC50 for Mf in MA
Procedure: as §1, §2, §3, §4, §5, §6

[3] = tested on: Brugia malayi adult worms (AW); test: MTT reduction assay on adult female worms; assay type: cell-based; conditions: for inhibition at 125 µg/mL: Brugia malayi, read-out: Mean % inhibition in MTT reduction by AW
Procedure: as §2, §3
MTT-reduction assay was carried out using adult worms as described elsewhere. The viability of the treated worms was assessed by calculating per cent inhibition in MTT-reduction potential of the treated worms over DMSO treated control parasites. A hundred percent inhibition in motility of female parasites or mf and or ≥ 50 % inhibition in MTT-reduction potential of the treated female parasites were considered to indicate positive antifilarial activity.
as §5

CC50 cytotoxicity assay = assay type: cell-based, African green monkey; conditions: African green monkey
Procedure: (§7) The assay was run in replicates in each of the two independent experiments.
as §6

Brugia malayi [4] = test: B. malayi-M. unguiculatus model (primary screening, intraperitoneal adult worm transplant); assay type: in vivo, Meriones unguiculatus; conditions: for Effect on mf in peritoneal cavity / Sterilised female worm count / Worms recovered, Total / Sterilised female worms (%) (embryostatic activity) / Total worms, % reduction over untreated (macrofilaricidal activity): doses as in Table 2; for Sterilised female worm count / Worms recovered, Total / Worms recovered, Female / Worms recovered, Male: mean ± SD; for Sterilised female worm count / Worms recovered, Total / Worms recovered, Female / Worms recovered, Male / Sterilised female worms (%) (embryostatic activity) / Total worms, % reduction over untreated (macrofilaricidal activity): day 56 p.i.t.; for Worms recovered, Total: A001: the 5 of 6 animals without worms; for Worms recovered, Female / Worms recovered, Male: x 5 days: A001 500 mg/kg p.o., K003/K004 100, ivermectin 1, DEC-C 25 mg/kg s.c.; for Effect on adult worms: ivermectin 1 mg/kg
Text: (§8) Meriones unguiculatus bearing intraperitoneally instilled adult worms and M. coucha inoculated with B. malayi L3 and showing microfilaremia in peritoneal cavity on day 3 post adult worm transplantation (p.a.t.) and progressive rise in microfilaraemia in peripheral circulation from day 120–180 post larval inoculation (p.l.i.), were employed as primary and secondary screening models, respectively, for assaying the antifilarial efficacy of the test agents.
(§9) The test agents were pulverised to fine powder and suspended in 1 % gum acacia/0.1 % Tween-80 in sterile distilled water. DEC-C and ivermectin were prepared in distilled water and ≤ 0.1 % Tween-80, respectively. The suspensions/solutions of the agents were prepared daily before administration to the animals.
(§10) Compounds K003 and K004 were given at 100 mg/kg body weight, subcutaneously (s.c.). The reference drugs DEC-C and ivermectin were administered to M. unguiculatus at 25 and 1 mg/kg body weight, respectively, while the M. coucha model received DEC-C at 50 mg/kg, body weight. […] Infected animals treated with vehicle only were used as control.
Male M. unguiculatus 8–10 weeks old (40–45 g) transplanted intraperitoneally with freshly isolated adult worms from B. malayi-infected M. unguiculatus were used for primary screening of test agents. On day 3 p.a.t., the peritoneal fluid was aspirated and checked for the presence of mf. The treatment was started on day 7/8 p.a.t. and continued for 5 consecutive days. On day 7/8 post-initiation of treatment (p.i.t) and thereafter at fortnightly intervals, the peritoneal fluid was examined under microscope to assess the condition of mf. All animals were killed on day 56 p.i.t. and parasites were collected from p.c., counted and examined for their viability and motility under microscope.
(§11) As a standard practice (following an accepted protocol) all the M. unguiculatus and M. coucha treated with test agents and vehicle were observed daily for their general health and behaviour (cage side observations) throughout the course of treatment and thereafter till termination of the experiment.
(§12) Microfilaricidal efficacy of the test agents was evaluated at each time point p.i.t and expressed as percent change in mf count over the pretreatment level.
(§13) Macrofilaricidal/adulticidal efficacy of the agents was assessed by calculating percent reduction in adult worm recovery in treated animals over untreated animals. Embryostatic/embryotoxic effect of agents was assessed by examining the uterine contents of female worms using the method described elsewhere and the percent of sterilised worms was determined from total female worms recovered from the treated and control animals.

Brugia malayi [5] = test: B. malayi-M. coucha model (secondary screening, L3 induced infection); assay type: in vivo, Mastomys coucha; conditions: for Macrofilaricidal activity (reduction in adult worm recovery over untreated control): DEC-C 50 mg/kg s.c. x 5 days, animals killed day 91 p.i.t.; for Sterile female worms: of surviving female parasites, day 91 p.i.t., control about 28 %; for Course of microfilaraemia: up to day 91 p.i.t.; for Regression line of microfilarial counts against days: trend of post-treatment microfilaraemia in Fig. 5a
Text: as §8, §9, §10
Mastomys coucha harbouring 5–7 month-old (L3 induced) B. malayi infection and showing progressive rise in microfilaraemia was used as secondary screening model. Mf count was recorded in peripheral blood (10 μl tail blood) just before initiation of the treatment (day 0), on day 7/8 and thereafter at weekly intervals till day 91 p.i.t. The animals were killed on day 91 p.i.t.
as §11, §12, §13
Statistical analyses were carried out using GraphPad Prism 3.0 software. Results were expressed as the mean ± standard deviation (S.D.) of data obtained from 4–6 animals in two experiments. The data were analysed by Student’s ‘t’ test and one-way ANOVA followed by Tukey’s multiple comparison test, as appropriate. Differences with P < 0.05 were considered significant. The microfilaricidal efficacy of antifilarials was determined by comparing the slopes of control, K003 and DEC treated groups. The slopes of the regression line were compared by standard procedure.

VERO Cell line C1008 = test: CC50 cytotoxicity assay; assay type: cell-based, African green monkey; conditions: reference drugs, values in μM
Procedure: as §7, §6

[6] = 100 % reduction in motility (death) of adult worms
[7] = Brugia malayi, 50 % inhibition in motility of adult worms
[8] = 100 % reduction in motility (death) of microfilariae
[9] = Brugia malayi, 50 % inhibition in motility of microfilariae
[10] = over DMSO control, test conc.: 500 μg/ml extract/fractions, 125 μg/ml compounds, 1000 μM DEC, 10/20 μM ivermectin
[11] = VERO C1008 cells (African green monkey kidney cells), concentration at which 50 % of VERO cells are killed, read-out: CC50
[12] = Brugia malayi, reference drugs, values in μM

| Compound | LC100 for AW in MA [1, 6] | IC50 [1, 7] | LC100 for Mf in MA [2, 8] | IC50 [2, 9] | inhibition at 125 µg/mL [3, 10] | Mean % inhibition in MTT reduction by AW [3, 10] | CC50 (CC50 cytotoxicity assay; [11]) | Effect on mf in peritoneal cavity (Brugia malayi [4]) | Sterilised female worm count (Brugia malayi [4]) | Worms recovered, Total (Brugia malayi [4]) | Worms recovered, Female (Brugia malayi [4]) | Worms recovered, Male (Brugia malayi [4]) | Macrofilaricidal activity (reduction in adult worm recovery over untreated control) (Brugia malayi [5]) | Sterile female worms (Brugia malayi [5]) | Course of microfilaraemia (Brugia malayi [5]; peripheral blood) | Regression line of microfilarial counts against days (Brugia malayi [5]) | LC100 for AW in MA ([1]; reference drugs, values in μM) | LC100 for Mf in MA ([2]; reference drugs, values in μM) | Sterilised female worms (%) (embryostatic activity) (Brugia malayi [4]) | Total worms, % reduction over untreated (macrofilaricidal activity) (Brugia malayi [4]) | also measured |
| --- | --- | --- | --- | --- | --- | --- | --- | --- | --- | --- | --- | --- | --- | --- | --- | --- | --- | --- | --- | --- | --- |
| C=C1CCC2C(C)(C)CCC[C@@]2(C)C1CC/C(C)=C/C(=O)O (some centres unmarked) [Compound K003, labda-8(20),13-diene-15-oic acid] | 125 µg/mL | 74.3 µg/mL | 31.25 µg/mL | 18.6 µg/mL | > 80% | 82.05% | 180 µg/mL | ineffective against mf | 8.00 ± 0.71 | 8.40 ± 1.14 | 8.00 ± 0.71 | 0.40 ± 0.89 | ~ 54% and 53.94% | > 36% | had more or less no effect on microfilaraemia till day 42 p.i.t., but thereafter microfilaraemia stopped increasing as compared to control; also recorded: stopped any further rise in microfilaraemia after day 42 p.i.t | 183.65 ± 0.82 days |  |  |  |  | Reduction in motility of adult worms ([1]; in vitro): 100%; Reduction in motility of mf ([2]; in vitro): 100% |
| CC[C@H](CC[C@@H](C)[C@H]1CC[C@H]2[C@@H]3CC=C4C[C@@H](O)CC[C@]4(C)[C@H]3CC[C@]12C)C(C)C [Compound K002, Beta-sitosterol] | > 250 µg/mL |  | > 250 µg/mL |  |  |  |  |  |  |  |  |  |  |  |  |  |  |  |  |  | IC50 ([1]; Brugia malayi): > 250 µg/mL; IC50 ([2]; Brugia malayi): > 250 µg/mL; inhibition at 125 µg/mL [3]: 38% |
| C=C1CCC2C(C)(C)C(OC(C)=O)CC[C@@]2(C)C1CC/C(C)=C/C(=O)O (some centres unmarked) [Compound K001, 3-Acetoxylabda-8(20),13-diene-15-oic acid] | 62.50 µg/mL | 41.2 µg/mL | 250 µg/mL | 88.4 µg/mL | 76.9% |  | 697 µg/mL |  |  |  |  |  |  |  |  |  |  |  |  |  |  |
| CCN(CC)C(=O)N1CCN(C)CC1 [DEC-C, Diethylcarbamazine-citrate] |  |  |  |  |  |  |  | did not affect mf count | 0.60 ± 0.89 | 9.20 ± 1.48 | 6.60 ± 1.14 | 2.60 ± 0.55 | around 26.47% | 20% | gradually increased and relapsed by day 49 p.i.t.; the count further increased rapidly and crossed the pretreatment level by day 56 p.i.t. | -21.04 + 2.95 days | 1000 µM | 500 µM | (7.86 ± 11.41) % | (22.03) % | IC50 [1, 12]: 315 µM; IC50 [2, 12]: 297 µM; CC50 (CC50 cytotoxicity assay): 9000 µM; Effect on female reproductive potential (Brugia malayi [4]; DEC-C 25 mg/kg s.c. x 5 days): did not affect mf count or female reproductive potential; Effect on adult worms (Brugia malayi [4]; DEC-C 25 mg/kg s.c. x 5 days): mild macrofilaricidal activity; Reduction in microfilarial count on day 7/8 p.i.t. (Brugia malayi [5]; DEC-C 50 mg/kg, peripheral blood): > 80% |
| ivermectin |  |  |  |  |  | 5.80% |  | did not affect mf in p.c. | 2.75 ± 0.96 |  | 6.25 ± 1.50 | 2.75 ± 0.96 |  |  |  |  | 5 µM | 2.5 µM | (44.29 ± 5.15) % | (22.43) % | IC50 ([1]; reference drugs, values in μM): 3.05 µM; IC50 ([2]; reference drugs, values in μM): 1.57 µM; CC50 (VERO Cell line C1008): 250 µM; Sterilised female worms (%) (embryostatic activity) (Brugia malayi [4]; listed as ivermectin): 44%; Effect on adult worms (Brugia malayi [4]; DEC-C 25 mg/kg s.c. x 5 days): mild but not statistically significant effect on adult worms |

Reference: article PMC4888613, “Antifilarial activity of diterpenoids from Taxodium distichum” (Parasites & Vectors, 2016)
